Assay results taken from PubChem BioAssay AID200 (DTP/NCI, 2004).
Values joined by “and” are separate entries in the source; they are usually repeats but may differ in a detail not shown here. Identical values can stand only once. Inconclusive results and toxic doses are left out. The calls were made as follows: active = survival T/C of 150% or more; inactive = T/C below 125% in these data. Where a SMILES comes first, the peptide text is derived from it. [ ]: non-standard residue; d: D form. The star is where a group is joined. Cbz = O=C(OCc1ccccc1)*; Nva = CCC[CH](N)C(=O)O

System: B6C3F1 mice, B16 melanoma ip, median survival T/C
Test: NCI In Vivo Anticancer Drug Screen. Data for tumor model B16 Melanoma (intraperitoneal) in B6C3F1 mice
Details: endpoint: median survival time, higher = longer survival
Summary of the method: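 Mice bearing transplanted tumor were dosed with compound or vehicle, and survival was recorded. Activity is expressed as the treated-group measurement (T) divided by the vehicle control measurement (C).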

[1] = dose: 100.0 mg/kg/injection, schedule: Q01DX009 (ip), vehicle: saline
[2] = dose: 200.0 mg/kg/injection, schedule: Q01DX009 (ip), vehicle: saline
[3] = dose: 400.0 mg/kg/injection, schedule: Q01DX009 (ip), vehicle: saline
[4] = dose: 25.0 mg/kg/injection, schedule: Q01DX009 (ip), vehicle: saline
[5] = dose: 3.12 mg/kg/injection, schedule: Q01DX009 (ip), vehicle: saline with Tween-80
[6] = dose: 6.25 mg/kg/injection, schedule: Q01DX009 (ip), vehicle: Klucel (hydroxypropylcellulose) (HPC)
[7] = dose: 6.25 mg/kg/injection, schedule: Q01DX009 (ip), vehicle: saline with Tween-80
[8] = dose: 12.5 mg/kg/injection, schedule: Q01DX009 (ip), vehicle: Klucel (hydroxypropylcellulose) (HPC)
[9] = dose: 12.5 mg/kg/injection, schedule: Q01DX009 (ip), vehicle: saline with Tween-80
[10] = dose: 25.0 mg/kg/injection, schedule: Q01DX009 (ip), vehicle: Klucel (hydroxypropylcellulose) (HPC)
[11] = dose: 25.0 mg/kg/injection, schedule: Q01DX009 (ip), vehicle: saline with Tween-80
[12] = dose: 50.0 mg/kg/injection, schedule: Q01DX009 (ip), vehicle: Klucel (hydroxypropylcellulose) (HPC)
[13] = dose: 50.0 mg/kg/injection, schedule: Q01DX009 (ip), vehicle: saline with Tween-80
[14] = dose: 100.0 mg/kg/injection, schedule: Q01DX009 (ip), vehicle: Klucel (hydroxypropylcellulose) (HPC)
[15] = dose: 200.0 mg/kg/injection, schedule: Q01DX009 (ip), vehicle: Klucel (hydroxypropylcellulose) (HPC)
[16] = dose: 100.0 mg/kg/injection, schedule: Q01DX009 (ip), vehicle: saline with Tween-80

Measured: T/C

CN(C)CC(=O)c1ccc(O)c(O)c1
inactive: [1] 104 % of control | [2] 114 % of control and 102 % of control | [3] 122 % of control and 108 % of control

CN1[C@@H](CC(=O)c2ccccc2)CCC[C@H]1CC(=O)c1ccccc1
inactive: [4] 104 % of control | dose: 50.0 mg/kg/injection, schedule: Q01DX009 (ip), vehicle: saline 112 % of control | [1] 98 % of control

Cc1cc2c(C(C)C)c(O)c(O)c(C=O)c2c(O)c1-c1c(C)cc2c(C(C)C)c(O)c(O)c(C=O)c2c1O
inactive: dose: 0.38 mg/kg/injection, schedule: Q01DX009 (ip), vehicle: saline with Tween-80 97 % of control | dose: 0.75 mg/kg/injection, schedule: Q01DX009 (ip), vehicle: saline with Tween-80 100 % of control | dose: 1.5 mg/kg/injection, schedule: Q01DX009 (ip), vehicle: saline with Tween-80 98 % of control | dose: 3.0 mg/kg/injection, schedule: Q01DX009 (ip), vehicle: saline with Tween-80 106 % of control

C=C(C)[C@@H]1CCc2c(O)c(O)c(=O)cc(C)c2C1
inactive: dose: 3.12 mg/kg/injection, schedule: Q01DX009 (ip), vehicle: Klucel (hydroxypropylcellulose) (HPC) 100 % of control | [5] 100 % of control | [6] 99 % of control | [7] 100 % of control | [8] 104 % of control | [9] 95 % of control | dose: 12.5 mg/kg/injection, schedule: Q01DX009 (ip), vehicle: saline 100 % of control | [10] 112 % of control | [11] 102 % of control | [4] 115 % of control | [12] 99 % of control | [13] 110 % of control | [14] 102 % of control

CCCC(NC(=O)OCc1ccccc1)C(=O)NC(CCSC)C(N)=O (configuration not stated) (Cbz-[Nva]-Met-NH2; configuration not given here)
inactive: [14] 104 % of control | [15] 103 % of control | dose: 400.0 mg/kg/injection, schedule: Q01DX009 (ip), vehicle: Klucel (hydroxypropylcellulose) (HPC) 93 % of control

CC(=O)N(C)C
inactive: dose: 122.5 mg/kg/injection, schedule: Q01DX009 (ip), vehicle: saline 89 % of control | dose: 225.0 mg/kg/injection, schedule: Q01DX009 (ip), vehicle: saline 95 % of control | dose: 450.0 mg/kg/injection, schedule: Q01DX009 (ip), vehicle: saline 95 % of control | dose: 900.0 mg/kg/injection, schedule: Q01DX009 (ip), vehicle: saline 105 % of control | dose: 1800.0 mg/kg/injection, schedule: Q01DX009 (ip), vehicle: saline 114 % of control

CC[n+]1ccc2c(C)c3[nH]c4ccc(O)cc4c3c(C)c2c1
inactive: dose: 0.39 mg/kg/injection, schedule: Q01DX009 (ip), vehicle: saline 110 % of control and 114 % of control | dose: 0.78 mg/kg/injection, schedule: Q01DX009 (ip), vehicle: saline 122 % of control | dose: 1.56 mg/kg/injection, schedule: Q01DX009 (ip), vehicle: saline 123 % of control

O=c1ccc2ccccc2o1
inactive: dose: 7.5 mg/kg/injection, schedule: Q01DX009 (ip), vehicle: saline with Tween-80 116 % of control and 118 % of control | dose: 15.0 mg/kg/injection, schedule: Q01DX009 (ip), vehicle: saline with Tween-80 117 % of control and 120 % of control | dose: 30.0 mg/kg/injection, schedule: Q01DX009 (ip), vehicle: saline with Tween-80 111 % of control and 112 % of control | dose: 60.0 mg/kg/injection, schedule: Q01DX009 (ip), vehicle: saline with Tween-80 120 % of control and 100 % of control | dose: 120.0 mg/kg/injection, schedule: Q01DX009 (ip), vehicle: saline with Tween-80 90 % of control and 96 % of control

COc1cc2c[n+](C)c3c(c2cc1OC)Cc1cc2c(cc1-3)OCO2
inactive: [9] 120 % of control | dose: 12.5 mg/kg/injection, schedule: Q01DX009 (ip), vehicle: suspension in saline 111 % of control | dose: 25.0 mg/kg/injection, schedule: Q01DX009 (ip), vehicle: suspension in saline 111 % of control | dose: 50.0 mg/kg/injection, schedule: Q01DX009 (ip), vehicle: suspension in saline 110 % of control

S=C(N/N=C1/CCCC/C1=N/NC(=S)N1CCOCC1)N1CCOCC1
inactive: dose: 1.56 mg/kg/injection, schedule: Q01DX009 (ip), vehicle: saline with Tween-80 124 % of control | [5] 116 % of control | [7] 119 % of control

CCC(=O)[O][Bi]([c]1ccccc1)[c]1ccccc1
inactive: [10] 92 % of control

CC1=C(CCC(=O)O)c2cc3nc(cc4[nH]c(cc5[nH]c(cc1n2)c(C)c5C(C)O)c(C)c4C(C)O)C(C)=C3CCC(=O)O (configuration not stated)
inactive: dose: 3.13 mg/kg/injection, schedule: Q01DX009 (ip), vehicle: Klucel (hydroxypropylcellulose) (HPC) 111 % of control | [6] 115 % of control | [8] 107 % of control | [10] 104 % of control

O=C(NC(CSSCC(NC(=O)OCc1ccccc1)C(=O)O)C(=O)O)OCc1ccccc1 (configuration not stated)
inactive: [10] 104 % of control | [12] 94 % of control | [14] 102 % of control | [15] 88 % of control

O=[N+]([O-])c1ccc(N2CCOCC2)c2c1no[n+]2[O-]
inactive: [9] 99 % of control | [11] 101 % of control | [13] 98 % of control | [16] 104 % of control

Nc1nc(Cc2ccccc2)c(CCCNc2ccccc2)c(=O)[nH]1
inactive: [7] 101 % of control | [9] 109 % of control | [11] 92 % of control | [13] 86 % of control

CNC(=O)Oc1ccc(S(=O)(=O)c2ccc(OC(=O)NC)cc2)cc1
inactive: [7] 109 % of control | [9] 95 % of control | [11] 88 % of control and 98 % of control | [13] 90 % of control and 96 % of control | [16] 86 % of control

CCCCOCN(COCCCC)C12CC3CC(CC(C3)C1)C2
inactive: [9] 108 % of control and 107 % of control | [11] 104 % of control and 105 % of control | [13] 109 % of control and 100 % of control | [16] 104 % of control and 106 % of control | dose: 200.0 mg/kg/injection, schedule: Q01DX009 (ip), vehicle: saline with Tween-80 105 % of control

O=C1c2ccccc2CCC1Cl (configuration not stated)
inactive: dose: 1.5 mg/kg/injection, schedule: Q01DX009 (ip), vehicle: DMSO 87 % of control | dose: 3.0 mg/kg/injection, schedule: Q01DX009 (ip), vehicle: DMSO 86 % of control and 87 % of control and 88 % of control | dose: 12.0 mg/kg/injection, schedule: Q01DX009 (ip), vehicle: DMSO 89 % of control | dose: 1.2 micrograms/kg/injection, schedule: Q01DX009 (ip), vehicle: DMSO 91 % of control | dose: 2.5 micrograms/kg/injection, schedule: Q01DX009 (ip), vehicle: DMSO 86 % of control | dose: 5.0 micrograms/kg/injection, schedule: Q01DX009 (ip), vehicle: DMSO 87 % of control | dose: 10.0 micrograms/kg/injection, schedule: Q01DX009 (ip), vehicle: DMSO 88 % of control

CC(O)C(NC(=O)OCC1c2ccccc2-c2ccccc21)C(=O)O (configuration not stated)
inactive: [8] 94 % of control and 98 % of control | [10] 88 % of control and 96 % of control | [12] 100 % of control and 101 % of control | [14] 93 % of control and 98 % of control | [15] 90 % of control and 100 % of control

CSCCC(NC(=O)CN)C(=O)O (configuration not stated)
inactive: [1] 87 % of control | [2] 90 % of control | [3] 91 % of control

O=C(NO)c1ccc(O)c(O)c1
inactive: dose: 22.5 mg/kg/injection, schedule: Q03HX024 (ip), vehicle: water 106 % of control | dose: 25.0 mg/kg/injection, schedule: Q01DX009 (ip), vehicle: water 100 % of control | dose: 45.0 mg/kg/injection, schedule: Q03HX024 (ip), vehicle: water 111 % of control | dose: 50.0 mg/kg/injection, schedule: Q01DX009 (ip), vehicle: water 109 % of control and 100 % of control | dose: 60.0 mg/kg/injection, schedule: Q01DX009 (ip), vehicle: water 110 % of control | dose: 90.0 mg/kg/injection, schedule: Q03HX024 (ip), vehicle: water 116 % of control | dose: 100.0 mg/kg/injection, schedule: Q01DX009 (ip), vehicle: water 111 % of control and 116 % of control and 99 % of control | dose: 116.0 mg/kg/injection, schedule: Q01DX009 (ip), vehicle: other 116 % of control | dose: 120.0 mg/kg/injection, schedule: Q01DX009 (ip), vehicle: water 110 % of control | dose: 176.0 mg/kg/injection, schedule: Q01DX009 (ip), vehicle: other 120 % of control | dose: 176.0 mg/kg/injection, schedule: Q01DX009 (ip), vehicle: water 120 % of control | dose: 180.0 mg/kg/injection, schedule: Q03HX024 (ip), vehicle: water 119 % of control | dose: 200.0 mg/kg/injection, schedule: Q01DX009 (ip), vehicle: water 112 % of control and 123 % of control | dose: 270.0 mg/kg/injection, schedule: Q03HX024 (ip), vehicle: water 87 % of control
